Data taken from patent US20240116985A1, “STAPLED PEPTIDES AND METHODS THEREOF” (priority 2020, published 2024).
pIC50: −log10 of the molar value. Like-named read-outs stand apart in the source and are kept apart here.

Experiments:
[1] = molecular target: T1, beta-catenin/TCF4 engagement (Homo sapiens, UniProt P35222); assay: Nano-BRET target engagement assay (B-cat-Halo & TCF4-Luc in HEK293 cells); assay type: cell-based; conditions: read-out: NanoBRET Abs IC50
T1 construct: expressed in transfected cells; host or cells: HEK293
T1 sequence (P35222 1-781): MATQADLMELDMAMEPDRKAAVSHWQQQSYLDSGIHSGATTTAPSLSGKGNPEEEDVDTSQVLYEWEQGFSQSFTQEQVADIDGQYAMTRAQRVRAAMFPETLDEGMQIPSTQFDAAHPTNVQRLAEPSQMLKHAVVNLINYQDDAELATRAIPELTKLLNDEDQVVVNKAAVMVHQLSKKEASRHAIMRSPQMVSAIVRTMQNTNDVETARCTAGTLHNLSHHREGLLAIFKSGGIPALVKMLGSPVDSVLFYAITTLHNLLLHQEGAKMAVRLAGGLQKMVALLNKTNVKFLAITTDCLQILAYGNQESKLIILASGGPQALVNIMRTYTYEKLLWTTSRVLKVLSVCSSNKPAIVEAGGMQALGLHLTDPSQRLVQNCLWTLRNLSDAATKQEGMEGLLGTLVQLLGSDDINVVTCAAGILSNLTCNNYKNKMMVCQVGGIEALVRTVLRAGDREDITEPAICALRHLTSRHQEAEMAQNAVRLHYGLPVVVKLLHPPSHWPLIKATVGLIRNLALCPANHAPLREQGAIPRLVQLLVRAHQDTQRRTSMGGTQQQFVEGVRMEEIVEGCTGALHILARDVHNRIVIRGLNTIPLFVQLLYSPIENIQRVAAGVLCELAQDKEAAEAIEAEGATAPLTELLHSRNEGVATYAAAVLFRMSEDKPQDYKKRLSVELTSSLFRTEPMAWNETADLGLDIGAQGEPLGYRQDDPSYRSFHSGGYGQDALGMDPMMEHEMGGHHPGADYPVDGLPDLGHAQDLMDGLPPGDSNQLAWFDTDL

[2] = molecular target: T2, full-length beta-Catenin (Uniprot ID P35222) (Homo sapiens, UniProt P35222); assay: Fluorescence polarization IC50 (beta-catenin / 5FAM-TCF4 10-53 competition); assay type: binding; conditions: fluorescence polarization; read-out: beta-Catenin FP IC50
T2 construct: 10 nM full-length beta-Catenin (Uniprot ID P35222)
T2 sequence (P35222 1-781): T1 sequence (P35222 1-781)

SMILES	pIC50 ([1]; absolute IC50)	pIC50 [2]	pIC50 [1]
CCNC(=O)[C@H](CCC(N)=O)NC(=O)[C@H](Cc1csc2ccccc12)NC(=O)[C@H](Cc1ccsc1)NC(=O)[C@]12CCN(C1)C(=O)OCCCC=CCCCC1(CCCC=CC[C@]3(CCCN3C(C)=O)C(=O)N[C@@H](CC(=O)O)C(=O)N[C@@H](CC(C)(C)C)C(=O)N1)C(=O)N[C@@H](CC(=O)O)C(=O)N[C@@H](CN(CC(=O)O)CC(F)(F)F)C(=O)N[C@@H](C)C(=O)N[C@@H](C)C(=O)N[C@@H](Cc1ccccc1)C(=O)N[C@@H](CC(C)C)C(=O)N2 (stereo partly drawn) [I-1678, Ac-PL3-Asp-Npg-B5-Asp-TfeGA-Ala-Ala-Phe-Leu-PyrS2-3Thi-BztA-Gln-NHEt]	5.01	7.49	–
CC(=O)N1CCC[C@]12CC=CCCCC1(CCCC=CCCCOC(=O)N3CC[C@@](C(=O)N[C@@H](Cc4ccccc4Cl)C(=O)N[C@@H](Cc4csc5ccccc45)C(=O)N[C@@H](CCC(N)=O)C(N)=O)(C3)NC(=O)[C@H](CC(C)C)NC(=O)[C@H](Cc3ccccc3)NC(=O)[C@H](C)NC(=O)C(C)(C)NC(=O)[C@H](Cc3cccc(C(=O)O)c3)NC(=O)[C@H](CC(=O)O)NC1=O)NC(=O)[C@H](CC(C)(C)C)NC(=O)[C@H](CC(=O)O)NC2=O (stereo partly drawn) [I-1686, Ac-PL3-Asp-Npg-B5-Asp-3COOHF-Aib-Ala-Phe-Leu-PyrS2-2C1F-BztA-Gln-NH2]	5.27	7.96	–
CC(=O)N1CCC[C@]12CC=CCCCC1(CCCC=CCCCOC(=O)N3CC[C@@](C(=O)N[C@@H](Cc4ccccc4C(F)(F)F)C(=O)N[C@@H](Cc4csc5ccccc45)C(=O)N[C@@H](CO)C(N)=O)(C3)NC(=O)[C@H](CC(C)C)NC(=O)[C@H](Cc3ccccc3)NC(=O)[C@H](C)NC(=O)[C@H](C)NC(=O)[C@H](Cn3cc(CCC(=O)O)nn3)NC(=O)[C@H](CC(=O)O)NC1=O)NC(=O)[C@H](CC(C)(C)C)NC(=O)[C@H](CC(=O)O)NC2=O (stereo partly drawn) [I-2371, Ac-PL3-Asp-Npg-B5-Asp-[CH2CH2CO2H]TriAzDap-Ala-Ala-Phe-Leu-PyrS2-2F3MeF-BztA-Ser-NH2]	5.30	8.30	–
CC(=O)N1CCC[C@H]1C(=O)N[C@]1(C)CCCCCCC2(CCCCCCCCOC(=O)N3CC[C@@](C(=O)N[C@@H](Cc4ccccc4C(F)(F)F)C(=O)N[C@@H](Cc4csc5ccccc45)C(=O)N[C@@H](CCC(N)=O)C(N)=O)(C3)NC(=O)[C@H](CC(C)C)NC(=O)[C@H](Cc3ccccc3)NC(=O)[C@H](C)NC(=O)[C@H](C)NC(=O)[C@H](Cc3cccc(C(=O)O)c3)NC(=O)[C@H](CC(=O)O)NC2=O)NC(=O)[C@H](CC(C)(C)C)NC(=O)[C@H](CC(=O)O)NC1=O (stereo partly drawn) [I-2572, Ac-Pro-R3-Asp-Npg-B5-Asp-3COOHF-Ala-Ala-Phe-Leu-PyrS2-2F3MeF-BztA-Gln-NH2]	–	7.17	< 4.70
CC(=O)N1CCC[C@]12CC=CCCCC1(CCCC=CCCCOC(=O)N3CC[C@@](C(=O)N[C@@H](Cc4ccccc4Cl)C(=O)N[C@@H](Cc4csc5ccccc45)C(=O)N[C@@H](CCC(N)=O)C(N)=O)(C3)NC(=O)[C@H](CC(C)C)NC(=O)[C@H](Cc3ccccc3)NC(=O)[C@H](C)NC(=O)[C@H](C)NC(=O)[C@H](Cc3ccc(F)c(C(=O)O)c3)NC(=O)[C@H](CC(=O)O)NC1=O)NC(=O)[C@H](CC(C)(C)C)NC(=O)[C@H](CC(=O)O)NC2=O (stereo partly drawn) [I-2203, Ac-PL3-Asp-Npg-B5-Asp-4F3COOHF-Ala-Ala-Phe-Leu-PyrS2-2C1F-BztA-Gln-NH2]	–	8.05	5.54
CC(=O)N1CCC[C@]12CC=CCCCC1(CCCC=CCCCOC(=O)N3CC[C@@](C(=O)N[C@@H](Cc4ccsc4)C(=O)N[C@@H](Cc4csc5ccccc45)C(=O)N[C@@H](CCC(N)=O)C(N)=O)(C3)NC(=O)[C@H](CC(=O)N3CCN(C)CC3)NC(=O)[C@H](Cc3ccccc3)NC(=O)[C@H](C)NC(=O)[C@H](C)NC(=O)[C@H](CC(=O)O)NC(=O)[C@H](CC(=O)O)NC1=O)NC(=O)[C@H](CC(C)(C)C)NC(=O)[C@H](CC(=O)O)NC2=O (stereo partly drawn) [I-1488, Ac-PL3-Asp-Npg-B5-Asp-Asp-Ala-Ala-Phe-MePpzAsn-PyrS2-3Thi-BztA-Gln-NH2]	4.52	8.22	–
CC(=O)N1CCC[C@]12CC=CCC1(CC=CCCCOC(=O)N3CC[C@@](C(=O)N[C@@H](Cc4ccsc4)C(=O)N[C@@H](Cc4csc5ccccc45)C(=O)N[C@@H](CCC(N)=O)C(N)=O)(C3)NC(=O)[C@H](CC(C)C)NC(=O)[C@H](Cc3ccccc3)NC(=O)[C@H](C)NC(=O)[C@H](C)NC(=O)[C@H](CC(=O)O)NC(=O)[C@H](CC(=O)O)NC1=O)NC(=O)[C@H](CC(C)(C)C)NC(=O)[C@H](CC(=O)O)NC2=O (stereo partly drawn) [I-2156, Ac-PL3-Asp-Npg-B3-Asp-Asp-Ala-Ala-Phe-Leu-PyrS2-3Thi-BztA-Gln-NH2]	–	6.41	< 4.70
C[C@@H]1NC(=O)[C@H](C)NC(=O)[C@H](CN(CC(=O)O)CC(F)(F)F)NC(=O)[C@H](CC(=O)O)NC(=O)C2(CCCC=CCCCOC(=O)N3CC[C@@](C(=O)N[C@@H](Cc4ccsc4)C(=O)N[C@@H](Cc4csc5ccccc45)C(=O)N[C@@H](CCC(N)=O)C(N)=O)(C3)NC(=O)[C@H](CC(N)=O)NC(=O)[C@H](Cc3ccccc3)NC1=O)CCCC=CC[C@]1(CCCN1S(C)(=O)=O)C(=O)N[C@@H](CC(=O)O)C(=O)N[C@@H](CC(C)(C)C)C(=O)N2 (stereo partly drawn) [I-1219, MeSO2-PL3-Asp-Npg-B5-Asp-TfeGA-Ala-Ala-Phe-Asn-PyrS2-3Thi-BztA-Gln-NH2]	< 4.70	8.15	–
CC(=O)N1CCC[C@]12CC=CCCCC1(CCCC=CCCCCCC[C@@](C)(C(=O)N[C@@H](Cc3ccccc3)C(=O)N[C@@H](Cc3csc4ccccc34)C(=O)N[C@@H](CCC(N)=O)C(N)=O)NC(=O)[C@H](CCC(N)=O)NC(=O)[C@H](Cc3ccccc3)NC(=O)[C@H](C)NC(=O)[C@H](C)NC(=O)[C@H](CCC(=O)O)NC(=O)[C@H](CC(=O)O)NC1=O)NC(=O)[C@H](CCCCN)NC(=O)[C@H](CC(=O)O)NC2=O (stereo partly drawn) [I-1552, Ac-PL3-Asp-Lys-B5-Asp-Glu-Ala-Ala-Phe-Gln-S8-Phe-BztA-Gln-NH2]	< 4.70	7.25	–
CC(=O)N1CCC[C@]12CC=CCCCC1(CCCC=CCCCOC(=O)N3CC[C@@](C(=O)N[C@@H](Cc4ccccc4Cl)C(=O)N[C@@H](Cc4csc5ccccc45)C(=O)N[C@@H](CC(N)=O)C(N)=O)(C3)NC(=O)[C@H](Cc3ccccc3)NC(=O)[C@H](Cc3ccccc3)NC(=O)[C@H](C)NC(=O)[C@H](C)NC(=O)[C@H](Cc3cccc(C(=O)O)c3)NC(=O)[C@H](CC(=O)O)NC1=O)NC(=O)[C@H](CC(C)(C)C)NC(=O)[C@H](CC(=O)O)NC2=O (stereo partly drawn) [I-2037, Ac-PL3-Asp-Npg-B5-Asp-3COOHF-Ala-Ala-Phe-Phe-PyrS2-2C1F-BztA-Asn-NH2]	–	7.77	5.30
CCNC(=O)[C@H](CCC(N)=O)NC(=O)[C@H](Cc1csc2ccccc12)NC(=O)[C@H](Cc1ccccc1Cl)NC(=O)[C@]12CCN(C1)C(=O)OCCCC=CCCCC1(CCCC=CC[C@]3(CCCN3C(C)=O)C(=O)N[C@@H](CC(=O)O)C(=O)N[C@@H](CC(C)(C)C)C(=O)N1)C(=O)N[C@@H](CC(=O)O)C(=O)N[C@@H](Cc1cccc(C(=O)O)c1)C(=O)N[C@@H](C)C(=O)N[C@@H](C)C(=O)N[C@@H](Cc1ccccc1)C(=O)N[C@@H](CC(C)C)C(=O)N2 (stereo partly drawn) [I-1672, Ac-PL3-Asp-Npg-B5-Asp-3COOHF-Ala-Ala-Phe-Leu-PyrS2-2C1F-BztA-Gln-NHEt]	5.15	7.40	–
